From paper PMC11167047 (Cell Death Discovery, 2024)

Columns and labels:
Experiment in all cases: kinome screen (33PanQinase)
Format in all cases: biochemical
[1] = molecular target: T1, CDK2/CycA2 (Homo sapiens, UniProt P24941)
T1 construct: purchased Reaction Biology Europe GmbH (formerly ProQinase)
Experimental: (§1) The Kinome Screening was performed by Reaction Biology Europe GmbH (http://reactionbiology.com; Freiburg i. Br., Germany).

[2] = molecular target: T2, RPS6KA6 (Homo sapiens, UniProt Q9UK32)
T2 construct: purchased Reaction Biology Europe GmbH (formerly ProQinase)
Experimental: as §1

[3] = molecular target: T3, CDK3/CycC (Homo sapiens, UniProt Q00526)
T3 construct: purchased Reaction Biology Europe GmbH (formerly ProQinase)
Experimental: as §1

[4] = molecular target: T4, MAP3K10 (Homo sapiens, UniProt Q02779)
T4 construct: purchased Reaction Biology Europe GmbH (formerly ProQinase)
Experimental: as §1

[5] = molecular target: T5, S6K (Homo sapiens, UniProt P23443)
T5 construct: purchased Reaction Biology Europe GmbH (formerly ProQinase)
Experimental: as §1

[6] = molecular target: T6, PAK1 (Homo sapiens, UniProt Q13153)
T6 construct: purchased Reaction Biology Europe GmbH (formerly ProQinase)
Experimental: as §1

[7] = molecular target: T7, NEK6 (Homo sapiens, UniProt Q9HC98)
T7 construct: purchased Reaction Biology Europe GmbH (formerly ProQinase)
Experimental: as §1

[8] = molecular target: T8, WNK3 (Homo sapiens, UniProt Q9BYP7)
T8 construct: purchased Reaction Biology Europe GmbH (formerly ProQinase)
Experimental: as §1

[9] = molecular target: T9, EPHA6 (Homo sapiens, UniProt Q9UF33)
T9 construct: purchased Reaction Biology Europe GmbH (formerly ProQinase)
T9 sequence (Q9UF33 23-1036): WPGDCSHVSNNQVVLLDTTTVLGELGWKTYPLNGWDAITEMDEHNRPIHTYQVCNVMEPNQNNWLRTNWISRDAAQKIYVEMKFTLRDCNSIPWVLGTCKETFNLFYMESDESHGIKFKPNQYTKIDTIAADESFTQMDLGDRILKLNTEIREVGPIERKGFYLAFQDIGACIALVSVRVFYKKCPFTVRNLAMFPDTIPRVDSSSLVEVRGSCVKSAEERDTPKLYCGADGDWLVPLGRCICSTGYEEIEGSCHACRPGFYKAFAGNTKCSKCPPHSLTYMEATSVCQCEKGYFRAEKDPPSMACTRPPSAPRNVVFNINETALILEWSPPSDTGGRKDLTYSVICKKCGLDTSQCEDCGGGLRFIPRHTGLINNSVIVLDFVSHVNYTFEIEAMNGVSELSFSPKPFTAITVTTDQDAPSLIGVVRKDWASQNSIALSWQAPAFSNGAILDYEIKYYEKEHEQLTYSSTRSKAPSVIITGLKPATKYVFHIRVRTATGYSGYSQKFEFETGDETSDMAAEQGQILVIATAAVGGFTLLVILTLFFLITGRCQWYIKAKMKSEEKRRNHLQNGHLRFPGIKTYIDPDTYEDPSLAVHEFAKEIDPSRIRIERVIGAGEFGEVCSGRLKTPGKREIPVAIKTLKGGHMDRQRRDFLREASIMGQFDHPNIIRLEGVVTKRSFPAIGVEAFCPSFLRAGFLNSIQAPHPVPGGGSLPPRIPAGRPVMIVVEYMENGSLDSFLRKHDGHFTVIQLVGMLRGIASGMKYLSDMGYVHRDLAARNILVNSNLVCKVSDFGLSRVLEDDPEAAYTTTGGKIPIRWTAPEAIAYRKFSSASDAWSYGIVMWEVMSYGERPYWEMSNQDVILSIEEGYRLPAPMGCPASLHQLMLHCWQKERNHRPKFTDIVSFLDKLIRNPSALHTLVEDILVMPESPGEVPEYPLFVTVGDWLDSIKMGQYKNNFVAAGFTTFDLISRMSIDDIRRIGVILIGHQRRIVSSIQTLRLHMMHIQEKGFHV
Experimental: as §1

[10] = molecular target: T10, NEK11 (Homo sapiens, UniProt Q8NG66)
T10 construct: purchased Reaction Biology Europe GmbH (formerly ProQinase)
T10 sequence (Q8NG66 1-645): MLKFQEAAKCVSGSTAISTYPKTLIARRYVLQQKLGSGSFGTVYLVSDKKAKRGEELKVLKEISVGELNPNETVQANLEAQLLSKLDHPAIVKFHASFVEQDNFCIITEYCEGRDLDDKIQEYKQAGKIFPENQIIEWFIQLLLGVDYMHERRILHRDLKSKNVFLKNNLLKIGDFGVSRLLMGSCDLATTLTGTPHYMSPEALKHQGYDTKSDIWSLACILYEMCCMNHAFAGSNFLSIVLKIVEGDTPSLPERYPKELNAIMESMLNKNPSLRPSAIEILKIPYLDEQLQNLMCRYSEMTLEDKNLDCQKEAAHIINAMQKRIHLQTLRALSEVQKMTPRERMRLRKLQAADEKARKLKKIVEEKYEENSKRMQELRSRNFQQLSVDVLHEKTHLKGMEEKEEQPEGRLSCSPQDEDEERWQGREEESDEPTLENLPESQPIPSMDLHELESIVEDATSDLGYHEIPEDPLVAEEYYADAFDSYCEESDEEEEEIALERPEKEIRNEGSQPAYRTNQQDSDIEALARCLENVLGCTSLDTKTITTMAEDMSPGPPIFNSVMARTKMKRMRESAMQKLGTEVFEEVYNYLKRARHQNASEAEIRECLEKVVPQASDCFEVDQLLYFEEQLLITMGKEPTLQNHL
Experimental: as §1

[11] = molecular target: T11, DNAPK (Homo sapiens, UniProt P78527)
T11 construct: purchased Reaction Biology Europe GmbH (formerly ProQinase)
Experimental: as §1

[12] = molecular target: T12, CAMKK1 (Homo sapiens, UniProt Q8N5S9)
T12 construct: purchased Reaction Biology Europe GmbH (formerly ProQinase)
Experimental: as §1

[13] = molecular target: T13, SRPK2 (Homo sapiens, UniProt P78362)
T13 construct: purchased Reaction Biology Europe GmbH (formerly ProQinase)
Experimental: as §1

T4 sequence (Q02779 whole entry): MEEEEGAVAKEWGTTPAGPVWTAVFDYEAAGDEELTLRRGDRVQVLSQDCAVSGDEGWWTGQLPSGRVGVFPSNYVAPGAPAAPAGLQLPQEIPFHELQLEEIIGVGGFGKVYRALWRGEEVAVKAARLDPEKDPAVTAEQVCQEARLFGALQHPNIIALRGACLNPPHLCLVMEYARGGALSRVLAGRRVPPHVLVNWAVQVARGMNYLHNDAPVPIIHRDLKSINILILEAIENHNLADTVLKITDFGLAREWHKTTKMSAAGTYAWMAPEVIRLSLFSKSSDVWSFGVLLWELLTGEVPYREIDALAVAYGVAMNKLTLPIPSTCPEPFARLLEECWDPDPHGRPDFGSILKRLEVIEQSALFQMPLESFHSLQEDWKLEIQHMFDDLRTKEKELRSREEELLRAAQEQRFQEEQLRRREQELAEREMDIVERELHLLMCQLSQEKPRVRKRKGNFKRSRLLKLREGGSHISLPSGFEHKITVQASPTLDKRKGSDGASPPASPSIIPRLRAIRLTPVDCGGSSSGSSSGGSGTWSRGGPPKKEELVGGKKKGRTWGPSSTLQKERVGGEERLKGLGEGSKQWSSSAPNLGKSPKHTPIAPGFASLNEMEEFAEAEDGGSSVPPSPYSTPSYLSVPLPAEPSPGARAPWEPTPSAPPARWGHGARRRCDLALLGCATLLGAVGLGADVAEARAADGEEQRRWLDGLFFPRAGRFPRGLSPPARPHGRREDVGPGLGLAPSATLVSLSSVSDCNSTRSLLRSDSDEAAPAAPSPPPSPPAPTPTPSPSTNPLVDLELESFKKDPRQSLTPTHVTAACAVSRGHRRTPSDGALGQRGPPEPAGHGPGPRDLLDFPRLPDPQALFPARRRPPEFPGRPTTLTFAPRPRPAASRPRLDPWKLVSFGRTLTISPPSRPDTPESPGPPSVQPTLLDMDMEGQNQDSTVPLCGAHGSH
T7 sequence (Q9HC98 whole entry): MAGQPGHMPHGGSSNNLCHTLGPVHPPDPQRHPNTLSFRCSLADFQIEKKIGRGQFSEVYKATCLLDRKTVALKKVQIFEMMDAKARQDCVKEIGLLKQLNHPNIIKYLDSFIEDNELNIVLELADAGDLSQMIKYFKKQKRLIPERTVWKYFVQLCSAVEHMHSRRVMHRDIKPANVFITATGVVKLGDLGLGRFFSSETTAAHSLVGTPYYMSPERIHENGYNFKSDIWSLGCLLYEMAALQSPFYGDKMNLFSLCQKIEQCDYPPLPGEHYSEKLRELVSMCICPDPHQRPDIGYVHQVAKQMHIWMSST
T2 sequence (Q9UK32 whole entry): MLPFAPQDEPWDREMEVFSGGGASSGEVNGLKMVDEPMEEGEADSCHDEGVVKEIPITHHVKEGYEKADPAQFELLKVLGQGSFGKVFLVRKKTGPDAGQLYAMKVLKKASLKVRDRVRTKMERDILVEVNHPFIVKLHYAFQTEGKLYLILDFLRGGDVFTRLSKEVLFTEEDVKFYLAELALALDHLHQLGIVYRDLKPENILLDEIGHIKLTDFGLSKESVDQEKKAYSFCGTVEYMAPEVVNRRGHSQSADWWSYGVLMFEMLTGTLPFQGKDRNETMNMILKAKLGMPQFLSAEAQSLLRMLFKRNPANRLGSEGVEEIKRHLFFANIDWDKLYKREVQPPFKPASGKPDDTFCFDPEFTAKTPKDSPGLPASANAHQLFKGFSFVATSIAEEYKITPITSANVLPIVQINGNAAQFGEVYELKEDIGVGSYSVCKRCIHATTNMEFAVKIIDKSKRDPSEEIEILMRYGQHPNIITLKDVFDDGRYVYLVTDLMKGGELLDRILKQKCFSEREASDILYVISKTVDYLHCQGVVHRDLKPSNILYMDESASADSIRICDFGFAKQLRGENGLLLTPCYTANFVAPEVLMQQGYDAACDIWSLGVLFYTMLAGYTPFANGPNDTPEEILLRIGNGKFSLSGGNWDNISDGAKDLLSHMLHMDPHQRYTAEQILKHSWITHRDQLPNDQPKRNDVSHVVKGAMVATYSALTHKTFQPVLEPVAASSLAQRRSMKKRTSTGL
T12 sequence (Q8N5S9 whole entry): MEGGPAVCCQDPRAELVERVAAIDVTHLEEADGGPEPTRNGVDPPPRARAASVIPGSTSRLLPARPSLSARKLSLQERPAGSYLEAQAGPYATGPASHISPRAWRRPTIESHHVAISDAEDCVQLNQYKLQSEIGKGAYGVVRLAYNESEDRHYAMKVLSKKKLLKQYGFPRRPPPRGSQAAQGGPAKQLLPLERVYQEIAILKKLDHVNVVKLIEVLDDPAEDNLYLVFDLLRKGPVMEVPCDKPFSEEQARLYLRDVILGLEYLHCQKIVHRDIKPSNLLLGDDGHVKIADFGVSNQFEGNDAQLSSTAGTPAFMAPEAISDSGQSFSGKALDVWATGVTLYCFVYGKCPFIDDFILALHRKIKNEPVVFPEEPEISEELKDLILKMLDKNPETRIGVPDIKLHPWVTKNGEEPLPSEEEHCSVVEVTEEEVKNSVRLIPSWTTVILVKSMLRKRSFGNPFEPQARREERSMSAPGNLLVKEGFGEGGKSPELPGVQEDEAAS
T3 sequence (Q00526 whole entry): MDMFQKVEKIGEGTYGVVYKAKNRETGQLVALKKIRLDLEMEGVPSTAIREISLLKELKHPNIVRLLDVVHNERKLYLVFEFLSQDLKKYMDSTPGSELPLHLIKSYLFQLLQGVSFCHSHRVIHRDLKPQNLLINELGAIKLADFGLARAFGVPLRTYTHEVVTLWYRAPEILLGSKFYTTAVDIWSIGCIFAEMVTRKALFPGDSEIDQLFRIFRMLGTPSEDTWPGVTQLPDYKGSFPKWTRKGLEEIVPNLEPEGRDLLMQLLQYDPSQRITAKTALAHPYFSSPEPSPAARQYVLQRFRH
T3 sequence (P24863 whole entry partner): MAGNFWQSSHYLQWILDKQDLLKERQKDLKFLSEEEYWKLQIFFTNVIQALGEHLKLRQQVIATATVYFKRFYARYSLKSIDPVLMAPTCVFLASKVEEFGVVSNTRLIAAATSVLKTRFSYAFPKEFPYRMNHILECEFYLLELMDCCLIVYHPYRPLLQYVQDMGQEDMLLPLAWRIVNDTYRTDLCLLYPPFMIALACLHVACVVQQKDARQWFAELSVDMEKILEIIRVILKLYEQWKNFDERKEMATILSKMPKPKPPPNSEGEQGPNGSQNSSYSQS
T8 sequence (Q9BYP7 whole entry): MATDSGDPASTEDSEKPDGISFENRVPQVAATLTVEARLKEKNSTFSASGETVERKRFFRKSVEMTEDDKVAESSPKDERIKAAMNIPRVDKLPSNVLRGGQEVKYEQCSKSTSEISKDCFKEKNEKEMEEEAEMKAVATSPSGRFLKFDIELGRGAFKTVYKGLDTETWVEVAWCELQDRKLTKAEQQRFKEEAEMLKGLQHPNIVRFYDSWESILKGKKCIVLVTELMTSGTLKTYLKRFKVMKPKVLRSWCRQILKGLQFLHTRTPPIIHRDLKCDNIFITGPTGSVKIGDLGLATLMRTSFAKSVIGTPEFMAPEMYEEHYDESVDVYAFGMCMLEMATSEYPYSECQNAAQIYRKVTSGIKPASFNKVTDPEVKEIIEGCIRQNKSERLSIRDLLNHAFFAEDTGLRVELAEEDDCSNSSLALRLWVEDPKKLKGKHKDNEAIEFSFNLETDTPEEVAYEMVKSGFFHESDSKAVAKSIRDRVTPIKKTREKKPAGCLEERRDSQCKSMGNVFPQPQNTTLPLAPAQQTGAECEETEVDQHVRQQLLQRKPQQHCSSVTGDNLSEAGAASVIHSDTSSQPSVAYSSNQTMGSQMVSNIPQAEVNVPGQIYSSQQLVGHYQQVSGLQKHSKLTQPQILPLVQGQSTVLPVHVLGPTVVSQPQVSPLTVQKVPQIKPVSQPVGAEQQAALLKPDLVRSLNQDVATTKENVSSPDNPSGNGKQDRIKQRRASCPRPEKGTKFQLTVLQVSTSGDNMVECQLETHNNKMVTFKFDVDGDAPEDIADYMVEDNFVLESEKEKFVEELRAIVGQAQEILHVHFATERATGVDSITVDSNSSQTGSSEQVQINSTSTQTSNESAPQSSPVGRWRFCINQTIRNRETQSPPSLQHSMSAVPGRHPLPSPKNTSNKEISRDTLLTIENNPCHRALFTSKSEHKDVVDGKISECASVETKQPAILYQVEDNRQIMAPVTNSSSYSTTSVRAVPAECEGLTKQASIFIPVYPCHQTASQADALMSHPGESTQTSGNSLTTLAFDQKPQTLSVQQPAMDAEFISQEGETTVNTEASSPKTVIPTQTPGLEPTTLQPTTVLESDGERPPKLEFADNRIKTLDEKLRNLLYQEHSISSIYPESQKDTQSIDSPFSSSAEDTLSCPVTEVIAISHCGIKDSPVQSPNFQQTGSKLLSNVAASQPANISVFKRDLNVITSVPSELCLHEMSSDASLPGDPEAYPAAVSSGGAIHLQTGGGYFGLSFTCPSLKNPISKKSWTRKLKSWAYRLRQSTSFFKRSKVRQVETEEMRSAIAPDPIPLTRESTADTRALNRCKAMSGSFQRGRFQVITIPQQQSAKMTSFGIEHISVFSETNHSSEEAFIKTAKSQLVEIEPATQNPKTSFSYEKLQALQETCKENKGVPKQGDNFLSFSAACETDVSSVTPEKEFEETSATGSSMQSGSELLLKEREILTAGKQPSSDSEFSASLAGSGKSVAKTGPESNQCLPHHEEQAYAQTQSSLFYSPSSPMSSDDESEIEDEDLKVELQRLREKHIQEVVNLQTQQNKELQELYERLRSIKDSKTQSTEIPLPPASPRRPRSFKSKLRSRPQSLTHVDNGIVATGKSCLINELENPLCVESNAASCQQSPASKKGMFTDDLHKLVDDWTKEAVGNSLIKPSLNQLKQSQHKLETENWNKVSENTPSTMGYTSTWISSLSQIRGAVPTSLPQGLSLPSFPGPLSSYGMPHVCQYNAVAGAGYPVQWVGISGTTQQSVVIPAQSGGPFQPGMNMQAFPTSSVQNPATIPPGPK

Row | SMILES | residual kinase activity ([1]; 0.3 µM) | residual kinase activity ([2]; 0.3 µM) | residual kinase activity ([3]; 0.3 µM) | residual kinase activity ([4]; 0.3 µM) | residual kinase activity ([5]; 0.3 µM) | residual kinase activity ([6]; 0.3 µM) | residual kinase activity ([7]; 0.3 µM) | residual kinase activity ([8]; 0.3 µM) | residual kinase activity ([9]; 0.3 µM) | residual kinase activity ([10]; 0.3 µM) | residual kinase activity ([11]; 0.3 µM) | residual kinase activity ([12]; 0.3 µM) | residual kinase activity ([13]; 0.3 µM) | other results
1 | c1ccc(CNc2cc(-c3c[nH]c4ncccc34)ccn2)cc1 [meriolin 36] | 1 % of control | 13 % of control | 9 % of control | 50 % of control | 82 % of control | 85 % of control | 112 % of control | 106 % of control | 101 % of control | 105 % of control | 71 % of control | 51 % of control | 87 % of control | residual kinase activity ([1]; 3 µM): 2 % of control; residual kinase activity ([2]; 3 µM): 3 % of control; residual kinase activity ([3]; 3 µM): 3 % of control; residual kinase activity ([4]; 3 µM): 9 % of control; residual kinase activity ([5]; 3 µM): 37 % of control; residual kinase activity ([6]; 3 µM): 76 % of control; residual kinase activity ([7]; 3 µM): 108 % of control; residual kinase activity ([8]; 3 µM): 104 % of control; residual kinase activity ([9]; 3 µM): 65 % of control; residual kinase activity ([10]; 3 µM): 85 % of control; residual kinase activity ([11]; 3 µM): 25 % of control; residual kinase activity ([12]; 3 µM): 18 % of control; residual kinase activity ([13]; 3 µM): 55 % of control
2 | COc1ccnc2[nH]cc(-c3cc(N)nc(N)c3)c12 [meriolin 16] | 2 % of control | 48 % of control | 20 % of control | 76 % of control | 84 % of control | 98 % of control | 104 % of control | 85 % of control | 105 % of control | 87 % of control | 97 % of control | 95 % of control | 91 % of control | residual kinase activity ([1]; 0.03 µM): 18 % of control; residual kinase activity ([2]; 0.03 µM): 84 % of control; residual kinase activity ([3]; 0.03 µM): 71 % of control; residual kinase activity ([4]; 0.03 µM): 99 % of control; residual kinase activity ([5]; 0.03 µM): 99 % of control; residual kinase activity ([6]; 0.03 µM): 106 % of control; residual kinase activity ([7]; 0.03 µM): 107 % of control; residual kinase activity ([8]; 0.03 µM): 85 % of control; residual kinase activity ([9]; 0.03 µM): 98 % of control; residual kinase activity ([10]; 0.03 µM): 97 % of control; residual kinase activity ([11]; 0.03 µM): 100 % of control; residual kinase activity ([12]; 0.03 µM): 97 % of control; residual kinase activity ([13]; 0.03 µM): 93 % of control
